Patent US20090298820A1, “3-SUBSTITUTED-1H-PYRROLO[2,3-B]PYRIDINE AND 3-SUBSTITUTED-1H-PYRROLO[3,2-B]PYRIDINE COMPOUNDS, THEIR USE AS MTOR KINASE AND PI3 KINASE INHIBITORS, AND THEIR SYNTHESES” (Wyeth, priority 2008, published 2009)

What was measured:
PI3Kα = PI3Kα (Homo sapiens, UniProt P42336); assay: PI3K-alpha fluorescence polarization assay; format: biochemical; conditions: read-out: PI3Kα Median IC50
PI3Kγ = PI3Kγ (Homo sapiens, UniProt P48736); assay: PI3K-gamma fluorescence polarization assay; format: biochemical; conditions: read-out: PI3Kγ Median IC50
Chain of PI3Kγ (P48736 whole entry, species assumed): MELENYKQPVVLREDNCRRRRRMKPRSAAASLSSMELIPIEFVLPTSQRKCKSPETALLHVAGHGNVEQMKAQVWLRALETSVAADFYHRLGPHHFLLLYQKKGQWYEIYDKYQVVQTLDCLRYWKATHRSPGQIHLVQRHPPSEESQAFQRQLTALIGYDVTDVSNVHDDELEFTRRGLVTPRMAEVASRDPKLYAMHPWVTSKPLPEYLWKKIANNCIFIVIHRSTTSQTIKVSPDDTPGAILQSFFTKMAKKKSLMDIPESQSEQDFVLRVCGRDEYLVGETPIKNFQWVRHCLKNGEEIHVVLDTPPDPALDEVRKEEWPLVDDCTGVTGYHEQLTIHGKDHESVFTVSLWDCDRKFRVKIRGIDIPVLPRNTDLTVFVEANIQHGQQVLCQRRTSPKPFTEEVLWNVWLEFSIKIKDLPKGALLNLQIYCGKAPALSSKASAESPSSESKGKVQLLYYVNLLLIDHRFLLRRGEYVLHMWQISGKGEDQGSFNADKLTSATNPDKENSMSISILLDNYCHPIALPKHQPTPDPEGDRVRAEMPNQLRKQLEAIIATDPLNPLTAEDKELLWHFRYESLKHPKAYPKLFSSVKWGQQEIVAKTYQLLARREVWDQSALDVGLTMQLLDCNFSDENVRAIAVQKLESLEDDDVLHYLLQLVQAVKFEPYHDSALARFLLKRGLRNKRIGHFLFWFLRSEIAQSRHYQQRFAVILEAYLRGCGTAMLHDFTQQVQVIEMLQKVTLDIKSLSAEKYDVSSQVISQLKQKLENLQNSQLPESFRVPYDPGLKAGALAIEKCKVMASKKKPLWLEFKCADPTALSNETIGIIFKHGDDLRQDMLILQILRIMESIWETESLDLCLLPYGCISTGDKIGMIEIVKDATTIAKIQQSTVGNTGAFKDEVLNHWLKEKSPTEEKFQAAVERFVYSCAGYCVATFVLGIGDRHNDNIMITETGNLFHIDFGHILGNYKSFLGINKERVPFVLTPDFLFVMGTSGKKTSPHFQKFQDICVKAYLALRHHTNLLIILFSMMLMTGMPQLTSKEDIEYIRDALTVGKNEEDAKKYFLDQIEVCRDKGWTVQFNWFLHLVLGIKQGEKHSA

mTOR = mTOR (Homo sapiens, UniProt P42345); assay: mTOR enzyme assay (DELFIA format, His6-S6K substrate); format: biochemical; conditions: read-out: mTOR Kinase Median IC50

Chain of PI3Kα (P42336 whole entry, species assumed): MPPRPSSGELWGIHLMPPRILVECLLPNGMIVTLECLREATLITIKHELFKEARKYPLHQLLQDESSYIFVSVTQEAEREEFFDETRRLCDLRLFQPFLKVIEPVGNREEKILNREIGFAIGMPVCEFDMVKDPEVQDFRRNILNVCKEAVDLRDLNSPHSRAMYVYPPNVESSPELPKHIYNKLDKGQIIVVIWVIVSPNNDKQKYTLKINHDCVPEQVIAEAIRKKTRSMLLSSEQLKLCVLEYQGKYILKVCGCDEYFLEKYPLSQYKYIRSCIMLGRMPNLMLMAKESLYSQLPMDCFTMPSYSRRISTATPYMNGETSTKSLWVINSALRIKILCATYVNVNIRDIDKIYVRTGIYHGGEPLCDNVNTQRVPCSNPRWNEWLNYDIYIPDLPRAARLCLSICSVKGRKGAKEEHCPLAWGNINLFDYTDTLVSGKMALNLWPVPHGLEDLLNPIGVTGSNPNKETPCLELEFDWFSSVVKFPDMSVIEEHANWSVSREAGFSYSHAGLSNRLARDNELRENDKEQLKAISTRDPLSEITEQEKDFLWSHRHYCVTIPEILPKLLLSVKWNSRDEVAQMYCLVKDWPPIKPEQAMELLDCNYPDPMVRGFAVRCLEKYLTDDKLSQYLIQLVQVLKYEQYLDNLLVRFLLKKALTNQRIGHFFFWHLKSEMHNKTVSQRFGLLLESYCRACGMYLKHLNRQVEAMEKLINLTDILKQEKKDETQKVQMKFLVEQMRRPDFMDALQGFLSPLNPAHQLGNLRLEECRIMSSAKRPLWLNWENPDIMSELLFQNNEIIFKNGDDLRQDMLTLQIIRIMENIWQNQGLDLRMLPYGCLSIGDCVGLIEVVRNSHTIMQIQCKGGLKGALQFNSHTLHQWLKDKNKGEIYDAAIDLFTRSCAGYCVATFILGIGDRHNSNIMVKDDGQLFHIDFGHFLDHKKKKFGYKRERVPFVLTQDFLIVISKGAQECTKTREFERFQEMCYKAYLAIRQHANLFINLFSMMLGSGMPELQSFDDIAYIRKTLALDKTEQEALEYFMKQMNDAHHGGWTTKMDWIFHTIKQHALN
Chain of PI3Kα (P27986 whole entry partner, species assumed): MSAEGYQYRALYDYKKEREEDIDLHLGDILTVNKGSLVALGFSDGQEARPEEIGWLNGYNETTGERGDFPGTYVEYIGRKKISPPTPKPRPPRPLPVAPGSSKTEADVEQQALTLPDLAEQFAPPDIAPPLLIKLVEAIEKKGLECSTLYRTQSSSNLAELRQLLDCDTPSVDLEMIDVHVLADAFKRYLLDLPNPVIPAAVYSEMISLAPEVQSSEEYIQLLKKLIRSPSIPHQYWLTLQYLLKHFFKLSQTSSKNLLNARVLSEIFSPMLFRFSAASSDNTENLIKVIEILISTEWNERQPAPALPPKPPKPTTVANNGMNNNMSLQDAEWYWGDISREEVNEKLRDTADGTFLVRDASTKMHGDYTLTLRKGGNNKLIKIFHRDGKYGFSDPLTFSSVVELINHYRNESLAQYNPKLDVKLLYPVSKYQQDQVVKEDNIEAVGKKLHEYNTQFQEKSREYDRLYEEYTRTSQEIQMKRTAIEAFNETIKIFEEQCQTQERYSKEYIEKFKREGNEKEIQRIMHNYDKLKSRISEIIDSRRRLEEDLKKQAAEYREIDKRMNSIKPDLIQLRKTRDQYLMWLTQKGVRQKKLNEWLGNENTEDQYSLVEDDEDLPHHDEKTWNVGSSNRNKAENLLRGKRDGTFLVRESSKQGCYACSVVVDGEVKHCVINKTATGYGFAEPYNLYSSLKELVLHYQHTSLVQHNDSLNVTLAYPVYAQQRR

SMILES | IC50 (PI3Kα) [nM] | IC50 (PI3Kγ) [nM] | IC50 (mTOR) [nM] | melting point
Cn1cc(/C=C2\Oc3cccc(N)c3C2=O)c2c(-c3ccccc3)ccnc21 [Compound 108, (2Z)-4-amino-2-[(1-methyl-4-phenyl-1H-pyrrolo[2,3-b]pyridin-3-yl)methylene]-1-benzofuran-3(2H)-one] | 6110 | > 10000 | 53 | 262 to 268 °C
Cn1cc(/C=C2\Oc3cc(O)ccc3C2=O)c2c(-c3ccccc3)ccnc21 [Compound 30, (2Z)-6-hydroxy-2-[(1-methyl-4-phenyl-1H-pyrrolo[2,3-b]pyridin-3-yl)methylene]-1-benzofuran-3(2H)-one] | 219 | 2380 | 19 | 314 to 316 °C (dec.)
CN(Cc1ccccn1)C(=O)C1CCN(c2ccnc3c2c(/C=C2\Oc4ccc(NC(=O)Nc5cccnc5)cc4C2=O)cn3C)CC1 [Compound 257, N-methyl-1-{1-methyl-3-[(Z)-{3-oxo-5-[(pyridin-3-ylcarbamoyl)amino]-1-benzofuran-2(3H)-ylidene}methyl]-1H-pyrrolo[2,3-b]pyridin-4-yl}-N-(pyridin-2-ylmethyl)piperidine-4-carboxamide] | 1570 | 1400 | 8.4 | 187 to 189 °C
Cn1cc(/C=C2\Oc3ccc(NC(=O)Nc4cccnc4)cc3C2=O)c2c(N3CC4CC3CO4)ccnc21 (stereo not drawn) [Compound 283, 1-[(2Z)-2-{[1-methyl-4-(2-oxa-5-azabicyclo[2.2.1]hept-5-yl)-1H-pyrrolo[2,3-b]pyridin-3-yl]methylidene}-3-oxo-2,3-dihydro-1-benzofuran-5-yl]-3-pyridin-3-ylurea] | 350 | 779 | 27 | 218 to 222 °C (dec.)
Cn1cc(/C=C2\Oc3ccc(NC(=O)Nc4cccnc4)cc3C2=O)c2c(N3CCC(C(=O)N4C5CCCC4COC5)CC3)ccnc21 [Compound 309, 1-[(2Z)-2-({1-methyl-4-[4-(3-oxa-9-azabicyclo[3.3.1]non-9-ylcarbonyl)piperidin-1-yl]-1H-pyrrolo[2,3-b]pyridin-3-yl}methylidene)-3-oxo-2,3-dihydro-1-benzofuran-5-yl]-3-pyridin-3-ylurea] | 164 | 1370 | 48 | 210 to 215 °C

The next compounds have a lower IC50 (PI3Kα) than those just listed; values first:

IC50 (PI3Kα) [nM] | IC50 (PI3Kγ) [nM] | IC50 (mTOR) [nM] | melting point | SMILES
120 | 576 | 39 | 205 °C | CN(C)C1CCN(c2ccnc3c2c(/C=C2\Oc4cccc(O)c4C2=O)cn3C)C1 (stereo not drawn) [Compound 112, (2Z)-2-({4-[3-(dimethylamino)pyrrolidin-1-yl]-1-methyl-1H-pyrrolo[2,3-b]pyridin-3-yl}methylene)-4-hydroxy-1-benzofuran-3(2H)-one]
43 | 351 | 10.5 | 330 to 332 °C | Cn1cc(/C=C2\Oc3cc(O)cc(O)c3C2=O)c2c(Oc3ccccc3)ccnc21 [Compound 94, (2Z)-4,6-dihydroxy-2-[(1-methyl-4-phenoxy-1H-pyrrolo[2,3-b]pyridin-3-yl)methylene]-1-benzofuran-3(2H)-one]
73 | 212 | 1.4 | 222 to 226 °C | COCC1CN(C(=O)c2ccc(-c3ccnc4c3c(/C=C3\Oc5cccc(O)c5C3=O)cn4C)cc2)CCO1 (stereo not drawn) [Compound 310, (2Z)-4-hydroxy-2-{[4-(4-{[2-(methoxymethyl)morpholin-4-yl]carbonyl}phenyl)-1-methyl-1H-pyrrolo[2,3-b]pyridin-3-yl]methylidene}-1-benzofuran-3(2H)-one]
145 | 698 | 3.8 | 112 to 115 °C | COCC1CN(C(=O)C2CCN(c3ccnc4c3c(/C=C3\Oc5cccc(O)c5C3=O)cn4C)CC2)CCO1 (stereo not drawn) [Compound 311, (2Z)-4-hydroxy-2-{[4-(4-{[2-(methoxymethyl)morpholin-4-yl]carbonyl}piperidin-1-yl)-1-methyl-1H-pyrrolo[2,3-b]pyridin-3-yl]methylidene}-1-benzofuran-3(2H)-one]
